Measured values from ChEMBL document CHEMBL3988442, “University of Dundee, Small-Polar-MMV Screening Library” (2021).

Test system: Schistosoma mansoni
Test: High throughput screening of compounds against Schistosoma mansoni motility
Format: functional
Parameters: dose or concentration left out as unconfirmed

| Compound | Percent Effect [%] |
| --- | --- |
| Oc1cc(CCC2CCCCN2)cc(-c2ccncc2)c1 (centres undefined) | 6.025 |
| COCCNS(=O)(=O)c1ccc2c(c1)CCN(C(=O)c1cncn1C)C2 | 4.246 |
| Cn1c(C(F)(F)F)nn(CCNC(=O)CSCc2ccccc2)c1=O | -2.069 |
| CC(CNC(=O)Nc1ccc(N(C)C)nc1)Cn1cccn1 (centres undefined) | -28.69 |
| O=C(CCc1ccc(=O)[nH]n1)N1CCCC(COc2ccc(F)cc2)C1 (centres undefined) | 4.924 |
| O=C(c1ccccn1)N1CCCC(c2nccn2Cc2ccncc2)C1 (centres undefined) | -73.06 |
| NC(=O)CCOc1nc(-c2ccccc2Cl)no1 | -31.15 |
| Cn1nnc2cc(C(=O)N3CCCC3Cc3ccccc3)ccc21 (centres undefined) | -37.55 |
| CC(C1CC1)N(C(=O)NCCCn1nc2ccccn2c1=O)C1CC1 (centres undefined) | -46.88 |
| O=C(CSc1ccncc1)N1C[C@H]2CC[C@@H]1CN(Cc1cccnc1)C2 | -27.79 |
| C[C@@H]1CN(C2(C(=O)N3CCOCC3)Cc3ccccc3C2)C[C@H](C)O1 | 12.59 |
| CN(Cc1ccccc1)CC1(O)CCCN(CC(C)(C)C)C1=O (centres undefined) | 9.775 |
| Cc1cccc(CNCc2c(C)nn(C)c2N2CCOCC2)n1 | -105.3 |
| Cc1nn(C)c(C)c1C1COCCN1C(=O)Cc1cccc(F)c1 (centres undefined) | -11.98 |
| Oc1ccc(N2CCN(Cc3cc4c(cc3Br)OCCO4)CC2)cc1 | -18.88 |
| COCCn1ccnc1C1CCCN(C(=O)CSCC2CC2)C1 (centres undefined) | -4.392 |
| Cc1ccccc1S(=O)(=O)NC(=O)CSc1ccc2c(c1)OCCO2 | -27.11 |
| Cc1nc(C)n(CC2CCCN2CCCc2ccccc2)n1 (centres undefined) | -9.599 |
| CCC(=O)N1CCc2[nH]cnc2C12CCN(C(=O)CCS(C)(=O)=O)CC2 | -12.74 |
| Cn1cc(-c2csc(CN3CCOCC3)n2)cn1 | 14.63 |
| O=C(NCC(F)F)N1CCC(n2ccc(C(F)(F)F)n2)CC1 | -27.04 |
| O=C(NCC(Cc1cccc(F)c1)N1CCCC1=O)c1cnccn1 (centres undefined) | 3.976 |

| Compound | Percent Effect [%] |
| --- | --- |
| Cc1cc(C)n(CC2CCCN2C(=O)c2ccc3c(c2)nnn3C)n1 (centres undefined) | -59.08 |
| O=C(c1cc(Cl)cc(Cl)c1)N1CCN(c2nccs2)CC1 | -19.81 |
| CCC(CC)c1cc(C(=O)N2CCCC(n3cncn3)C2)on1 (centres undefined) | 1.073 |
| O=C(CCc1cc2n(n1)CCCN(C(=O)c1cccnc1)C2)NC1CC1 | 5.877 |
| COCCN(Cc1ccc(F)cc1Cl)C(=O)c1ccncc1 | -38.63 |
| CN(CCC(F)(F)F)C(=O)C1CCCN1C(=O)OC(C)(C)C (centres undefined) | -26.39 |
| Cc1nc2ccccn2c1CN(Cc1cccnc1)CC1CCCO1 (centres undefined) | -47.66 |
| COc1nc2c(cc1C(=O)N1C[C@H](N)C[C@H]1C(=O)NC(C)C)CCC2 | 37.99 |
| Cc1csc(N2CCN(Cc3ccccn3)CC2C)n1 (centres undefined) | -63.75 |
| CC(C)NC(=O)[C@@H]1C[C@H](N)CN1C(=O)c1cc2c([nH]c1=O)CCCC2 | -18.08 |
| CN(C(=O)Cn1nc(-c2ccc(F)cc2)oc1=O)C1CCS(=O)(=O)C1 (centres undefined) | -46.67 |
| Cc1occc1C(=O)Nc1ccnc(OC2CCOC2)c1 (centres undefined) | -74.39 |
| CC(Cn1cncn1)NCc1nncn1C1CCCCC1 (centres undefined) | 4.936 |
| COCC(C)(O)CNC(=O)COc1ccccc1OC (centres undefined) | -28.83 |
| Cc1cccc(C2(C(=O)NCCCn3cccn3)CC2)c1 | -39.94 |
| O=C(Nc1nccs1)N1CCCC(N2CCNC2=O)C1 (centres undefined) | -22.52 |
| CC(=O)N1CCC(C(=O)NCCN2CCCCC2)CC1 | 25.49 |
| CCc1noc(C(C)N(C)CC(=O)Nc2c(C)cccc2C)n1 (centres undefined) | -71 |
| CC(=O)Nc1cccc(C(=O)Nc2cnc3n2CCCC3)c1 | -24.57 |
| Cc1cn(-c2ccccc2)nc1NS(=O)(=O)c1cc(C(=O)O)cs1 | -15.39 |
| O=C(c1cccnc1)N1C[C@@H]2CC[C@H](C1)N(Cc1cc(F)ccc1F)C2 | -34.82 |
| CC(C)NC(=O)c1nnn(-c2cccc(C(F)(F)F)c2)c1N | 32.01 |
